One block for each compound: values may come before it.
Experiments:
[1] = 1H NMR titration, binding of chloride; settings: n-Bu4N^+ salt, CD3CN/CDCl3 (1/9, v/v), room temperature
Experimental: ^1H NMR Titration methods. Titrations of 4c and 6c with anions as their tetra-n-butyl ammonium (TBA) salts were carried out by ^1H NMR (400 MHz on Bruker-400) at room temperature (298 K). 0.5 mL of receptor 4c (5.0 mM) or 6c (2.0 mM) were prepared in the rubber-cap NMR tubes. Aliquots of concentrated TBACl or TBAI solution (50 mM for the titration of 4c and 20 mM for the titration of 6c) containing the same amount of receptors were added into the receptor solution using 20 microliter pipette. An initial ^1H NMR spectrum was collected and additional spectra were obtained after each injection of TBACl or TBAI solution. All titration ^1H NMR spectra were stacked together and the chemical shifts of amide protons were then fitted to the proposed 1:1 binding model using BindFit v0.5 (http://app.supramolecular.org/bindfit/).
(§1) Anion binding with four amides, i.e., L1mer-L4mer, was studied in the mixed solvents of CD3CN/CDCl3 (1/9, v/v) by titrating an amide host with 0 to 5 equivalents of tetrabutylammonium (n-Bu4N^+) salt of the corresponding anion. The binding of chloride, bromide, iodide, and nitrate was examined with the four amides in CDCl3 containing 10% CD3CN. The titration data were collected by monitoring the changes in chemical shifts of the backbone amide protons and the inner aromatic protons with varying ratios of the anion guests. Job plots indicate that these linear oligoamides and their anion guests bind in a 1:1 stoichiometry.
(§2) The binding of anions by macrocycle 7c was examined in CH3CN/CHCl3 (6/4, v/v) and in DMSO by titrating with various equivalents of the salts of chloride, iodide. nitrate, and dihydrogen phosphate, with tetrabutylammonium (n-Bu4N^+) being the counterion ion. Following the changes in the chemical shifts of backbone amide protons and “inner” aromatic protons allowed the determination of binding constants.
^1H NMR titration methods. Titrations of c5a and c5b with anions as their tetra-n-butylammonium (TBA), tetra-ethylammonium (TEA) and tetra-methylammonium (TMA) salts were carried out by ^1H NMR (400 MHz) at 25° C. […]

[2] = 1H NMR titration, binding of nitrate; settings: n-Bu4N^+ salt, CD3CN/CDCl3 (1/9, v/v), room temperature
From the text: as §1, §2
^1H NMR titration methods. Titrations of c5a and c5b with anions as their tetra-n-butylammonium (TBA), tetra-ethylammonium (TEA) and tetra-methylammonium (TMA) salts were carried out by ^1H NMR (400 MHz) at 25° C. 0.4 mL of corresponding hosts solutions were prepared in the rubber-cap NMR tubes. Aliquots of concentrated guest solution containing hosts were added into the NMR tubes using 20 microliter pipette. An initial ^1H NMR spectrum was collected and additional spectra were obtained after each injection of guest solution. All titration ^1H NMR spectra were stacked together and the chemical shifts of the internal aromatic CH proton were then fitted to 1:1 binding model using BindFit v0.5 (http://app.supramolecular.org/bindfit/) to evaluate binding constants to anions.

Solubility = assay type: physicochemical
[3] = pH 8.3, in water; cited from earlier work

Ka of chloride [1]: 39 M⁻¹
Compound: CCCCCCCCCC(=O)Nc1ccc(NC(=O)C(C)(C)COCCCCCCCC)c(C(=O)NCCCCCC)c1 [Compound L1mer]

Ka of chloride [1]: over 1,000 M^−1
Ka of nitrate [2]: ~10000 M⁻¹
Compound: CCCCCCCCCC(=O)Nc1ccc(NC(=O)C(C)(C)COCCCCCCCC)c(C(=O)Nc2ccc(NC(=O)C(C)(C)COCCCCCCCC)c(C(=O)Nc3ccc(NC(=O)C(C)(C)COCCCCCCCC)c(C(=O)Nc4ccc(NC(=O)C(C)(C)COCCCCCCCC)c(C(=O)NCCCCCC)c4)c3)c2)c1 [Compound L4mer]

Compound: COCCOCCOCCOCC(C)(C)C(=O)Nc1ccc2cc1C(=O)Nc1ccc(NC(=O)C(C)(C)COCCOCCOCCOC)c(c1)C(=O)Nc1ccc(NC(=O)C(C)(C)COCCOCCOCCOC)c(c1)C(=O)Nc1ccc(NC(=O)C(C)(C)COCCOCCOCCOC)c(c1)C(=O)Nc1ccc(NC(=O)C(C)(C)COCCOCCOCCOC)c(c1)C(=O)N2 [c5b]
solubility in organic solvents (Solubility; variety of / many organic solvents): soluble
solubility in water (Solubility; water): ~ 1 mM

Compound: SBP: sulfate-binding protein (SBP) from the gram-negative bacterium S. typhimurium
Ka for the sulfate ion [3]: 8.3e+06 M⁻¹

Source: patent US20260272879A1, “ANION-BINDING AROMATIC OLIGOAMIDE MACROCYCLES AND METHODS OF MAKING AND USING SAME” (The Research Foundation for The State University of New York, priority 2023, published 2026)
